Experimental data as given in ChEMBL document CHEMBL3865816, “Design, synthesis and biological evaluation of novel azaspiro analogs of linezolid as antibacterial and antitubercular agents” (Eur J Med Chem, 2016).
Values after ≈ are worked out from the molar mass of the structure shown.

Legend:
Format in all cases: functional
[1] = test system: Mycobacterium tuberculosis variant bovis; assay: Antitubercular activity against dormant stage Mycobacterium bovis BCG ATCC 35734 at 30 ug/ml measured after 12 days by nitrate reductase assay; settings: ATCC 35734, 288 h
[2] = test system: Mycobacterium tuberculosis variant bovis; assay: Antitubercular activity against dormant stage Mycobacterium bovis BCG ATCC 35734 at 3 ug/ml measured after 12 days by nitrate reductase assay; settings: ATCC 35734, 288 h
[3] = test system: Mycobacterium tuberculosis variant bovis; assay: Antitubercular activity against dormant stage Mycobacterium bovis BCG ATCC 35734 at 10 ug/ml measured after 12 days by nitrate reductase assay; settings: ATCC 35734, 288 h
[4] = test system: Mycobacterium tuberculosis variant bovis; assay: Antitubercular activity against dormant stage Mycobacterium bovis BCG ATCC 35734 measured after 12 days by nitrate reductase assay; settings: ATCC 35734, 288 h
[5] = test system: Mycobacterium tuberculosis variant bovis; assay: Antitubercular activity against active stage Mycobacterium bovis BCG ATCC 35734 measured after 8 days by nitrate reductase assay; settings: ATCC 35734, 192 h

Row | Compound | inhibition at 30 µg/mL [1] | inhibition at 3 µg/mL [2] | inhibition at 10 µg/mL [3] | IC50 [4] | MIC [4] | IC50 [5] | MIC [5]
1 | O=C1OC2(CCN(Cc3ccccc3)C2)CN1c1ccc(N2CCOCC2)c(F)c1 (centres undefined) | -11.2% | -11.8% | -9.32% | > 100 µg/mL | > 100 µg/mL | – | –
2 | CC(=O)NC[C@H]1CN(c2ccc(C3=C[C@H]4CC[C@@H](C3)N4C(=O)OC(C)(C)C)c(F)c2)C(=O)O1 | 96.3% | 57.9% | 89.3% | 5.82 µg/mL (≈ 12.7 µM) | 23.1 µg/mL (≈ 50.4 µM) | 4.35 µg/mL (≈ 9.47 µM) | 31.2 µg/mL (≈ 67.8 µM)
3 | OC1(CNc2ccc(N3CCOCC3)c(F)c2)CCN(Cc2ccccc2)C1 (centres undefined) | -1.83% | -6.7% | -6.66% | > 100 µg/mL | > 100 µg/mL | – | –
4 | O=C1O[C@@H](CNC(=S)Nc2cccc(C(F)(F)F)c2)CN1c1ccc(N2CC3(COC3)C2)c(F)c1 | 94.8% | 29.6% | 83.9% | > 100 µg/mL | > 100 µg/mL | – | –
5 | O=C1O[C@@H](CNC(=S)Nc2ccc([N+](=O)[O-])cc2)CN1c1ccc(N2CC3(COC3)C2)c(F)c1 | -6.89% | 39.9% | -15.8% | > 100 µg/mL | > 100 µg/mL | – | –
6 | N#Cc1ccc(NC(=S)NC[C@H]2CN(c3ccc(N4CC5(COC5)C4)c(F)c3)C(=O)O2)cc1 | 88.1% | 97.4% | 97.2% | > 100 µg/mL | > 100 µg/mL | – | –
7 | CC(C)NC(=S)NC[C@H]1CN(c2ccc(N3CC4(COC4)C3)c(F)c2)C(=O)O1 | 94.4% | 21.9% | 74.6% | > 100 µg/mL | > 100 µg/mL | – | –
8 | CC1(C)[C@@]2(C)CC[C@]1(C(=O)NC[C@H]1CN(c3ccc(N4CC5(COC5)C4)c(F)c3)C(=O)O1)OC2=O | 8.27% | -35.3% | 3.86% | > 100 µg/mL | > 100 µg/mL | – | –
9 | O=C(NC[C@H]1CN(c2ccc(N3CC4(COC4)C3)c(F)c2)C(=O)O1)c1ccno1 | 89% | 66.9% | 86.1% | 4.83 µg/mL (≈ 12 µM) | 10.1 µg/mL (≈ 25.2 µM) | 4.11 µg/mL (≈ 10.2 µM) | 9.82 µg/mL (≈ 24.4 µM)
10 | COc1ccc(NC(=S)NC[C@H]2CN(c3ccc(N4CC5(COC5)C4)c(F)c3)C(=O)O2)cc1 | 73.2% | 18.9% | 63% | > 100 µg/mL | > 100 µg/mL | – | –
11 | CC(=O)NC[C@H]1CN(c2ccc(N3CCOCC3)c(F)c2)C(=O)O1 [LINEZOLID] | 101% | 101% | 101% | 0.31 µg/mL (≈ 0.919 µM) | 0.43 µg/mL (≈ 1.27 µM) | 0.029 µg/mL (≈ 0.086 µM) | 0.42 µg/mL (≈ 1.24 µM)
12 | O=C1O[C@@H](CNS(=O)(=O)c2cccc(C(F)(F)F)c2)CN1c1ccc(N2CC3(COC3)C2)c(F)c1 | -5.29% | -2.23% | -6.57% | > 100 µg/mL | > 100 µg/mL | – | –
13 | O=C1O[C@@H](CNC(=S)Nc2ccc(Cl)cc2)CN1c1ccc(N2CC3(COC3)C2)c(F)c1 | -26.1% | -1.89% | -10.1% | > 100 µg/mL | > 100 µg/mL | – | –
14 | CC(=O)N1CCC2(C1)CN(c1ccc(N3CCOCC3)c(F)c1)C(=O)O2 (centres undefined) | 8.79% | -2.09% | -3.02% | > 100 µg/mL | > 100 µg/mL | – | –
15 | CC(=O)OCC(=O)NC[C@H]1CN(c2ccc(N3CC4(COC4)C3)c(F)c2)C(=O)O1 | 99.4% | 99.2% | 99.6% | 3.05 µg/mL (≈ 7.49 µM) | 5.77 µg/mL (≈ 14.2 µM) | 3.35 µg/mL (≈ 8.22 µM) | 6.32 µg/mL (≈ 15.5 µM)
16 | NC[C@H]1CN(c2ccc(N3CC4(COC4)C3)c(F)c2)C(=O)O1 | 89.4% | -0.29% | 52% | 17.3 µg/mL (≈ 56.4 µM) | 24.4 µg/mL (≈ 79.2 µM) | 15.7 µg/mL (≈ 51.2 µM) | 29.5 µg/mL (≈ 96 µM)
17 | COCC(=O)NC[C@H]1CN(c2ccc(N3CC4(COC4)C3)c(F)c2)C(=O)O1 | 98.6% | 74.5% | 97.2% | > 100 µg/mL | > 100 µg/mL | – | –
18 | O=C(NC[C@H]1CN(c2ccc(N3CC4(COC4)C3)c(F)c2)C(=O)O1)c1cccnc1 | 102% | 76.2% | 101% | > 100 µg/mL | > 100 µg/mL | – | –
19 | O=C1O[C@@H](CNC(=S)Nc2ccccc2F)CN1c1ccc(N2CC3(COC3)C2)c(F)c1 | 94.7% | 42.1% | 92.9% | 17.7 µg/mL (≈ 38.4 µM) | 61.2 µg/mL (≈ 133 µM) | 13.1 µg/mL (≈ 28.4 µM) | 44.5 µg/mL (≈ 96.5 µM)
20 | O=C1O[C@@H](CNS(=O)(=O)c2cc(Cl)cc(Cl)c2)CN1c1ccc(N2CC3(COC3)C2)c(F)c1 | 3.87% | 25.9% | -2.28% | > 100 µg/mL | > 100 µg/mL | – | –
21 | O=C(NC[C@H]1CN(c2ccc(N3CC4(COC4)C3)c(F)c2)C(=O)O1)c1ccc(C(F)(F)F)cc1 | 73.1% | 65% | 8.62% | > 100 µg/mL | > 100 µg/mL | – | –
22 | O=C1O[C@@H](CNS(=O)(=O)c2ccc(Cl)s2)CN1c1ccc(N2CC3(COC3)C2)c(F)c1 | 91.7% | 34.8% | 83.5% | > 100 µg/mL | > 100 µg/mL | – | –
23 | O=C1OC2(CCNC2)CN1c1ccc(N2CCOCC2)c(F)c1 (centres undefined) | -7.3% | -3.11% | -16.8% | > 100 µg/mL | > 100 µg/mL | – | –
24 | O=C1O[C@@H](CNS(=O)(=O)c2cc([N+](=O)[O-])ccc2Cl)CN1c1ccc(N2CC3(COC3)C2)c(F)c1 | 15% | 11.1% | 11.6% | > 100 µg/mL | > 100 µg/mL | – | –
25 | O=C(NC[C@H]1CN(c2ccc(N3CC4(COC4)C3)c(F)c2)C(=O)O1)Nc1ccc(Cl)cc1 | 28.6% | -5.78% | -3.58% | > 100 µg/mL | > 100 µg/mL | – | –
26 | O=C1O[C@@H](CNC(=O)C23CC4CC(CC(C4)C2)C3)CN1c1ccc(N2CC3(COC3)C2)c(F)c1 | 62.6% | 11.8% | 44.1% | > 100 µg/mL | > 100 µg/mL | – | –
27 | CC(C)(C)NC(=S)NC[C@H]1CN(c2ccc(N3CC4(COC4)C3)c(F)c2)C(=O)O1 | 33.6% | -9.84% | -3.89% | > 100 µg/mL | > 100 µg/mL | – | –
28 | CC(=O)NC[C@H]1CN(c2ccc(N3CC4(COC4)C3)c(F)c2)C(=O)O1 | 95.9% | 99.1% | 100% | 0.81 µg/mL (≈ 2.32 µM) | 1.67 µg/mL (≈ 4.78 µM) | 0.79 µg/mL (≈ 2.26 µM) | 1.83 µg/mL (≈ 5.24 µM)
